From ChEMBL document CHEMBL1152733, “Specificities of calreticulin transacetylase to acetoxy derivatives of 3-alkyl-4-methylcoumarins: effect on the activation of nitric oxide synthase” (Bioorg Med Chem, 2009)
The source made the active and inactive calls.

Columns and labels:
Rattus norvegicus [1] = organism: Rattus norvegicus; assay: Inhibition of rat liver microsomal CRTAase catalyzed activation of NADPH cytochrome C reductase
Rattus norvegicus [2] = organism: Rattus norvegicus; assay: Inhibition of rat liver microsomal CRTAase-mediated inhibition of cytosolic glutathione S-transferase activity
Platelet = assay: Increase in NO levels in citreated human platelet rich plasma assessed as enhancement of dichloro fluorescein fluorescence by flow cytometry; assay type: functional

Measured: Activity

CCc1c(C)c2ccc(OC(C)=O)cc2oc1=O
active: Rattus norvegicus [1] | Rattus norvegicus [2] | Platelet

CCCCCCCCCCc1c(C)c2ccc(OC(C)=O)c(OC(C)=O)c2oc1=O
active: Rattus norvegicus [1] | Rattus norvegicus [2] | Platelet

CCCCCCCCCCc1c(C)c2ccc(OC(C)=O)cc2oc1=O
active: Rattus norvegicus [1] | Rattus norvegicus [2] | Platelet

CC(=O)Oc1ccc2c(C)cc(=O)oc2c1OC(C)=O
active: Rattus norvegicus [1] | Rattus norvegicus [2] | Platelet

CC(=O)Oc1ccc2c(C)cc(=O)oc2c1
active: Rattus norvegicus [1] | Rattus norvegicus [2] | Platelet

CCCCCCc1c(C)c2ccc(OC(C)=O)cc2oc1=O
active: Rattus norvegicus [1] | Rattus norvegicus [2] | Platelet

CCc1c(C)c2ccc(OC(C)=O)c(OC(C)=O)c2oc1=O
active: Rattus norvegicus [1] | Rattus norvegicus [2] | Platelet

CCCCCCc1c(C)c2ccc(OC(C)=O)c(OC(C)=O)c2oc1=O
active: Rattus norvegicus [1] | Rattus norvegicus [2] | Platelet
